{"source": "patent US3960949A", "about": "“1,2-Biguanides” (Schering Aktiengesellschaft, priority 1971, dated 1976)", "data": [{"test": "not given", "conditions": "in vivo; cited from earlier work", "values": [{"smiles": "CCCCNC(=N)NC(=N)N", "note": "[1-Butylbiguanide, 1-butylbiguanide]", "gastrointestinal compatibility": "gastrointestinal incompatibility"}, {"smiles": "[H]/N=C(/N)N/C(=N/[H])NCCc1ccccc1", "note": "[Phenformin, 1-β-phenethylbiguanide]", "gastrointestinal compatibility": "gastrointestinal incompatibility"}]}, {"test": "in vivo", "conditions": "mouse, po", "method": "Five days after administration of the substance, the number of surviving animals was determined. […] The LD50 values were in each case based on the free base.", "units": {"LD50 at 120 h": "mg/kg"}, "values": [{"smiles": "CCN=C(NC(=N)N)N(CC)CC.O=[N+]([O-])O", "note": "[1,1,2-Triethylbiguanide, 1,1,2-Triethylbiguanide Nitrate]", "LD50 at 120 h": "> 2000"}, {"smiles": "Br.CC(C)N=C(NC(=N)N)NC(C)C", "note": "[1,2-Diisopropylbiguanide, 1,2-Diisopropylbiguanide Hydrobromide]", "LD50 at 120 h": "> 2000"}, {"smiles": "CCCCN/C(=N\\CC)NC(=N)N", "note": "[1-Ethyl-2-n-butylbiguanide]", "LD50 at 120 h": "> 2000"}, {"smiles": "CCCN=C(NC)NC(=N)N.Cl", "note": "[1-Methyl-2-n-propylbiguanide, 1-Methyl-2-n-propylbiguanide Hydrochloride]", "LD50 at 120 h": "> 2000"}, {"smiles": "CN/C(=N\\CCc1ccccc1)NC(=N)N", "note": "[1-Methyl-2-β-phenethylbiguanide, 2-Methyl-1-β-phenethylbiguanide Nitrate]", "LD50 at 120 h": 2830}]}]}
